According to patent US8377967B2, “Piperidine derivative” (Nippon Zoki Pharmaceutical Co., Ltd., priority 2008, dated 2013):
Structures can show the parent of a compound that is named as a salt.

What follows are compounds tested against human histamine H1 receptor (Homo sapiens, UniProt P35367) (assay: In vitro human histamine H1 receptor binding experiment ([3H]pyrilamine)). Details: HEK293A cells stably expressing human histamine H1 receptor, [3H]pyrilamine 3 nmol/L, room temperature 60 minutes.
Sequence of human histamine H1 receptor (P35367 whole entry): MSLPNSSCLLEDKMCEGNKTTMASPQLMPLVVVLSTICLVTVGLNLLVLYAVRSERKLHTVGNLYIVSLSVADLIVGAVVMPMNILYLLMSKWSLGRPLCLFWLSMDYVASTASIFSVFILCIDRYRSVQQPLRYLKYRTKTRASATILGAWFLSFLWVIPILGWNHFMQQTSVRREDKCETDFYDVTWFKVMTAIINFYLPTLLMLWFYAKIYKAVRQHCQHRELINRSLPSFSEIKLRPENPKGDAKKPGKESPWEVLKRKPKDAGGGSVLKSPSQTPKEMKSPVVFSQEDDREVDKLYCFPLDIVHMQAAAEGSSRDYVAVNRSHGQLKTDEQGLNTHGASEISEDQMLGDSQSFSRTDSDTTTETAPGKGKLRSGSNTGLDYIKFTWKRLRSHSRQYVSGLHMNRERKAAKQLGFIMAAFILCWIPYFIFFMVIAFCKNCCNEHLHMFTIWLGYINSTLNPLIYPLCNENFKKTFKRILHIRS
Description: Recombinant human histamine H1 receptor plasmid (prepared by Invitrogen) was transfected to HEK293A cells with Lipofectamine 2000 (manufactured by Invitrogen). Cells stably expressing human histamine H1 receptor were screened with Geneticin (manufactured by Invitrogen). The cells were continued to be cultured using a Dulbecco's Modified Eagle Medium containing 10% fetal bovine serum, 0.1 mmol/L MEM Non-Essential Amino Acids Solution, 2 mmol/L L-glutamine and 0.7 mg/mL Geneticin in a 5% CO2 incubator at 37° C. The cells stably expressing human histamine H1 receptor were prepared using 50 mmol/L Tris-HCl (pH 7.5) (hereinafter referred to as buffer) containing 0.1% bovine serum albumin, so as to have a concentration of 3×10^6 cells/mL, to give a cell sample preparation. Fifty microliters of the buffer, 50 μl of a test substance solution at various concentrations, and 50 μL of [^3H]pyrilamine solution (final concentration: 3 nmol/L) were added to each of the wells on the 96-well plate, and stirred, and 100 μL of the cell sample preparation was then added thereto (at a concentration of 3×10^5 cells/well) to initiate the reaction.
The cells were incubated at room temperature for 60 minutes, and then filtered on UniFilter GF/C plate (manufactured by Packard) immersed in 0.5% polyethyleneimine using a cell harvester (IH-110, manufactured by INNOTECH CORPORATION), to stop the reaction, and the plate was washed with the buffer. The plate after washing was sufficiently dried, and 20 μL of a scintillator (MaxiLight, manufactured by Hidex) was added thereto, and count per minute (cpm) was measured with a multi-labeled microplate reader (Plate Chameleo II, manufactured by Hidex). The nonspecific binding was cpm in a case where 30 μmol/L pyrilamine was added. The experiments were carried out at n=3, and at least repeated 3 times.

SMILES	IC50 [nM]
CN1CCC(=C2c3ccccc3CCc3sc(C(=O)NO)cc32)CC1 [Compound 78, N-Hydroxy-{[4-(1-methylpiperidin-4-ylidene)-9,10-dihydro-4H-1-thiabenzo[f]azulen-2-yl]}carboxamide]	65.1
CCOC(=O)Nc1cc2c(s1)CCc1ccccc1C2=C1CCN(C)CC1 [Compound 75, 2-Ethoxycarbonylamino-4-(1-methylpiperidin-4-ylidene)-9,10-dihydro-4H-1-thiabenzo[f]azulene]	74.8
CC(CO)NC(=O)c1cc2c(s1)CCc1ccccc1C2=C1CCN(C)CC1 (stereo not drawn) [Compound 71, N-(1-Hydroxyprop-2-yl)-{[4-(1-methylpiperidin-4-ylidene)-9,10-dihydro-4H-1-thiabenzo[f]azulen-2-yl]}carboxamide]	62
CN1CCC(=C2c3ccccc3CCc3sc(C(=O)N(C)O)cc32)CC1 [Compound 74, N-Hydroxy-N-methyl-{[4-(1-methylpiperidin-4-ylidene)-9,10-dihydro-4H-1-thiabenzo[f]azulen-2-yl]}carboxamide]	70.9
CCOC(=O)c1cc2c(s1)C(=O)Cc1ccccc1C2=C1CCN(C)CC1 [Compound 50, Ethyl[4-(1-methylpiperidin-4-ylidene)-10-oxo-9,10-dihydro-4H-1-thiabenzo[f]azulen-2-yl]carboxylate]	16.9
CCCNC(=O)c1cc2c(s1)CCc1ccccc1C2=C1CCN(C)CC1 [Compound 85, N-Propyl-{[4-(1-methylpiperidin-4-ylidene)-9,10-dihydro-4H-1-thiabenzo[f]azulen-2-yl]}carboxamide]	27.5
CN1CCC(=C2c3ccccc3CCc3cc(NC(=O)OC(C)(C)C)sc32)CC1 [Compound 10, 2-t-Butoxycarbonylamino-4-(1-methylpiperidin-4-ylidene)-9,10-dihydro-4H-3-thiabenzo[f]azulene]	88.5
N#CCCN1CCC(=C2c3ccccc3CCc3sc(C(=O)O)cc32)CC1 [Compound 94, {4-[1-(2-Cyanoethyl)piperidin-4-ylidene]-9,10-dihydro-4H-1-thiabenzo[f]azulen-2-yl}carboxylic acid]	69
CCCN1CCC(=C2c3ccccc3CCc3sc(C(=O)OCC)cc32)CC1 [Compound 133, Ethyl 4-(1-propylpiperidin-4-ylidene)-9,10-dihydro-4H-1-thiabenzo[f]azulene-2-carboxylate hydrochloride]	17
CCOC(=O)Cc1cc2c(s1)C(=C1CCN(C)CC1)c1ccccc1CC2 [Compound 23, Ethyl[4-(1-methylpiperidin-4-ylidene)-9,10-dihydro-4H-3-thiabenzo[f]azulen-2-yl]acetate hydrochloride]	3.5
CN1CCC(=C2c3ccccc3CCc3sc(C(=O)NCC(F)(F)F)cc32)CC1 [Compound 79, N-(2,2,2-Trifluoroethyl)-{[4-(1-methylpiperidin-4-ylidene)-9,10-dihydro-4H-1-thiabenzo[f]azulen-2-yl]}carboxamide]	28.2
CCOC(=O)c1ccc2c(c1)C(=C1CCN(CC)CC1)c1sccc1CC2 [Compound 160, Ethyl 4-(1-ethylpiperidin-4-ylidene)-9,10-dihydro-4H-3-thiabenzo[f]azulene-6-carboxylate]	5.58
COC(=O)CCCc1ccc2c(c1)C(=C1CCN(CCCC(C)=O)CC1)c1sccc1CO2 [Compound 187, Methyl 4-{4-[1-(4-oxopentyl)piperidin-4-ylidene]-4,10-dihydro-9-oxa-3-thiabenzo[f]azulen-6-yl}butyrate hydrochloride]	8.76
CN1CCC(=C2c3cc(CCCCC(=O)O)ccc3OCc3ccsc32)CC1 [Compound 157, 5-[4-(1-Methylpiperidin-4-ylidene)-4,10-dihydro-9-oxa-3-thiabenzo[f]azulen-6-yl]valeric acid]	90.5
CC(C(=O)O)c1ccc2c(c1)C(=C1CCN(C)CC1)c1sccc1CO2 (stereo not drawn) [Compound 57, 2-[4-(1-Methylpiperidin-4-ylidene)-4,10-dihydro-9-oxa-3-thiabenzo[f]azulen-6-yl]propionic acid hydrochloride]	70.1
COC(=O)CCCc1ccc2c(c1)C(=C1CCN(C)CC1)c1sccc1CO2 [Compound 123, Methyl 4-[4-(1-methylpiperidin-4-ylidene)-4,10-dihydro-9-oxa-3-thiabenzo[f]azulen-6-yl]butyrate hydrochloride]	3.12
CN1CCC(=C2c3ccccc3CCc3sc(CC(=O)NCCO)cc32)CC1 [Compound 63, N-(2-Hydroxyethyl)-{[4-(1-methylpiperidin-4-ylidene)-9,10-dihydro-4H-1-thiabenzo[f]azulen-2-yl]}acetamide]	42
CCOC(=O)c1ccc2c(c1)C(=C1CCN(C)CC1)c1ccsc1CC2 [Compound 95, Ethyl[4-(1-methylpiperidin-4-ylidene)-9,10-dihydro-4H-1-thiabenzo[f]azulen-6-yl]carboxylate]	14.9
COC(=O)Cc1ccc2c(c1)C(=C1CCN(CCCN3CCCCC3)CC1)c1sccc1CO2 [Compound 163, Methyl {4-[1-(3-piperidin-1-yl-propyl)piperidin-4-ylidene]-4,10-dihydro-9-oxa-3-thiabenzo[f]azulen-6-yl}acetate dihydrochloride]	90.8
COCCNC(=O)c1cc2c(s1)CCc1ccccc1C2=C1CCN(C)CC1 [Compound 38, N-(2-Methoxyethyl)-[4-(1-methylpiperidin-4-ylidene)-9,10-dihydro-4H-1-thiabenzo[f]azulen-2-yl]carboxamide hydrochloride]	70.8
COC(=O)CCCCc1ccc2c(c1)C(=C1CCN(C)CC1)c1sccc1CO2 [Compound 156, Methyl 5-[4-(1-methylpiperidin-4-ylidene)-4,10-dihydro-9-oxa-3-thiabenzo[f]azulen-6-yl]valerate hydrochloride]	9.66
COC(=O)CCc1ccc2c(c1)C(=C1CCN(CCNS(C)(=O)=O)CC1)c1sccc1CO2 [Compound 195, Methyl 3-{4-[1-(2-methanesulfonylaminoethyl)piperidin-4-ylidene]-4,10-dihydro-9-oxa-3-thiabenzo[f]azulen-6-yl}propionate hydrochloride]	11.7
CC(O)CNC(=O)c1cc2c(s1)CCc1ccccc1C2=C1CCN(C)CC1 (stereo not drawn) [Compound 70, N-(2-Hydroxypropyl)-{[4-(1-methylpiperidin-4-ylidene)-9,10-dihydro-4H-1-thiabenzo[f]azulen-2-yl]}carboxamide]	93.3
CCOC(=O)C(C)(C)c1cc2c(s1)CCc1ccccc1C2=C1CCN(CC)CC1 [Compound 154, Ethyl 2-[4-(1-ethylpiperidin-4-ylidene)-9,10-dihydro-4H-1-thiabenzo[f]azulen-2-yl]-2-methylpropionate hydrochloride]	25.6
CC(C(=O)O)c1cc2c(s1)C(=C1CCN(C)CC1)c1ccccc1CC2 (stereo not drawn) [Compound 60, 2-[4-(1-Methylpiperidin-4-ylidene)-9,10-dihydro-4H-3-thiabenzo[f]azulen-2-yl]propionic acid hydrochloride]	59.1
COC(=O)Cc1ccc2c(c1)C(=C1CCN(CCCNS(C)(=O)=O)CC1)c1sccc1CO2 [Compound 193, Methyl {4-[1-(3-methanesulfonylaminopropyl)piperidin-4-ylidene]-4,10-dihydro-9-oxa-3-thiabenzo[f]azulen-6-yl}acetate hydrochloride]	13.1

These compounds were tested on histamine-induced vascular hyperpermeability reaction (assay: Rat histamine-induced vascular hyperpermeability reaction (in vivo antihistamine action)). Details: SD male rat, oral administration 1 hour before intracutaneous histamine, leaked Evans Blue pigment.
Description: An SD male rat (SPF) of 180 g in weight was previously fed for one week or more by allowing the rat to take a solid feed and tap water ad libitum, under the environment setting of a temperature of 22° C., humidity of 55% and an artificial illumination of 12 hours a day (light phase 8 am to 8 pm), and the rat was fasted overnight to be used for the experiment. Histamine•dihydrochloride (hereinafter referred to as histamine) and Evans Blue were used by dissolving each in physiological saline upon use. A substance to be tested was dissolved in water for injection or suspended in 0.5% carboxymethyl cellulose sodium, and the rat was orally administered with the solution or suspension (dose volume: 5 mL/kg body weight). After 1 hour from the administration, the physiological saline and the histamine solution were each intracutaneously injected to two locations (20 μg/0.05 ml/location) each on a back part of the rat of which hair was sheared with an electric clipper while anesthetizing with an ether. A 0.5% Evans Blue-containing physiological saline was injected intravenously to the tail of the rat (1 mL/200 g body weight) immediately before the intracutaneous injection of the histamine.
After 30 minutes, the animal was decapitated, and allowed to bleed lethally, and the skin was removed to measure an amount of leaked pigment in the blue-stained portion. The measurement of the amount of leaked pigment was carried out as follows. Skins of the pigment leaking site were cut out at two locations, 1 mL of a 2 mol/L aqueous potassium hydroxide solution was added thereto in a test tube, and the test tube was allowed to stand overnight at 37° C. to dissolve. Thereafter, 6 mL of a 1:3 mixed solution of 0.67 mol/L phosphoric acid and acetone was added to the solution, and the mixture was vigorously shaken for 10 minutes. Thereafter, the mixture was filtered, and the absorbance of the filtrate at 620 nm was measured. The absorbance obtained from the two locations of the sites injected with physiological saline, as blank value, was used for a compensation. The amount of leaked pigment was calculated from the calibration curve of Evans Blue at 620 nm.

SMILES	ED50 [mg/kg]
CN1CCC(=C2c3ccccc3CC(=O)c3sccc32)CC1 [Ketotifen, reference compound]	0.54
